Reference: ChEMBL document CHEMBL2331239, “Inhibiting NF-κB-inducing kinase (NIK): discovery, structure-based design, synthesis, structure-activity relationship, and co-crystal structures” (Bioorg Med Chem Lett, 2013)

Target: T1, Mitogen-activated protein kinase kinase kinase 14 (Homo sapiens, UniProt Q99558)
Experiment: Inhibition of NIK (unknown origin) autophosphorylation after 1 hr by chemiluminescent assay

T1 sequence (Q99558 whole entry): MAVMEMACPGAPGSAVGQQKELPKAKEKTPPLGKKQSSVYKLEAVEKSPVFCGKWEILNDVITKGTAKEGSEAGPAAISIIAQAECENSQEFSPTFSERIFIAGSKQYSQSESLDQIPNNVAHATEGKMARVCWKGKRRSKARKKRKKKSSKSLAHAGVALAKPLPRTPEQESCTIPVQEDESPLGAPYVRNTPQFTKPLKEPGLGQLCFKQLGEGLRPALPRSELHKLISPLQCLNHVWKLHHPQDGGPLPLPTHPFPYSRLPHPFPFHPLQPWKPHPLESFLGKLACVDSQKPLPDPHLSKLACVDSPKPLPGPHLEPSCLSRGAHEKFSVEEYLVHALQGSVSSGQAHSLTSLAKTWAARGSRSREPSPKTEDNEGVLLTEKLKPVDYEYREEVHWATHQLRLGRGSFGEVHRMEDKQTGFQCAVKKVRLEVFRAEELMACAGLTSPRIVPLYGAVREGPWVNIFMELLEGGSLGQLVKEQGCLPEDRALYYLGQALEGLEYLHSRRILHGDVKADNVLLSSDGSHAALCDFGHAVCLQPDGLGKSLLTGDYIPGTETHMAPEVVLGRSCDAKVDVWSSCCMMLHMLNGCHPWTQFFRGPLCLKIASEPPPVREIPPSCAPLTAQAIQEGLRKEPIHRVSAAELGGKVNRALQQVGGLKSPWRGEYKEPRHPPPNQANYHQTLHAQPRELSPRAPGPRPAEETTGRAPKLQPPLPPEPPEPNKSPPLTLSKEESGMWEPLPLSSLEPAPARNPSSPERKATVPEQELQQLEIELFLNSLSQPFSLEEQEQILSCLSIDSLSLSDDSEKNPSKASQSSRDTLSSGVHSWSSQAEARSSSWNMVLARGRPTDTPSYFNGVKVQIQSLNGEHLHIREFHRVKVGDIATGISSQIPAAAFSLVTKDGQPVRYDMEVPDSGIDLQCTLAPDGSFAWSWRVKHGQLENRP

Q: Cc1nc2ccccn2c1-c1ccnc(N)n1 was tested. Which IC50 did it give?
A: > 80000 nM

Q: Which IC50 does the source give for Cc1ccn2c(-c3ccnc(N)n3)c(C)nc2c1 here?
A: > 80000 nM

Q: How did the IC50 turn out when Cc1nc2c(C)cccn2c1-c1ccnc(N)n1 was run?
A: > 80000 nM

Q: How did the IC50 turn out when Cc1cnc(N)nc1-c1c[nH]c2ccc(Cl)cc12 was run?
A: 110 nM

Q: Cc1cnc(N)nc1-c1c(C)[nH]c2ccc(Cl)cc12 was tested. Which IC50 did it give?
A: 30000 nM

Q: How did the IC50 turn out when Nc1ncc2c(n1)-c1c([nH]c3ccc(Cl)cc13)CCC2 was run?
A: 70 nM

Q: For Nc1ncc2c(n1)-c1c[nH]c3ccc(Cl)c(c13)CC2, which IC50 is on record?
A: 2600 nM

Q: With Nc1ncc2c(n1)-c1c([nH]c3ccc(Cl)cc13)CC2 as the compound, how does the IC50 read?
A: 1200 nM

Q: For Nc1ncc2c(n1)-c1c([nH]c3ccc(Cl)cc13)CCCC2, which IC50 is on record?
A: 21000 nM

Q: Which IC50 does the source give for Nc1ncc2c(n1)-c1c([nH]c3ccc(Br)cc13)CCC2 here?
A: 100 nM

Q: Which IC50 does the source give for Nc1ncc2c(n1)-c1c([nH]c3ccc(C#Cc4cccnc4)cc13)CCC2 here?
A: 30000 nM

Q: Which IC50 does the source give for Cn1cncc1C#Cc1ccc2[nH]c3c(c2c1)-c1nc(N)ncc1CCC3 here?
A: 30000 nM

Q: For CC(O)c1ccc(-c2ccc3[nH]c4c(c3c2)-c2nc(N)ncc2CCC4)cc1 (stereo not drawn), which IC50 is on record?
A: 24000 nM

Q: With CC(O)c1ccc(-c2ccc3[nH]c4c(c3c2)-c2nc(N)ncc2CCC4)s1 (stereo not drawn) as the compound, how does the IC50 read?
A: 15000 nM

Q: How did the IC50 turn out when COCCOc1cnc(N)nc1-c1c[nH]c2ccc(C#CC(C)(C)O)cc12 was run?
A: 40 nM

Q: Cc1nc2ccc(Cl)cn2c1-c1ccnc(N)n1 was tested. Which IC50 did it give?
A: 600 nM

Q: Nc1nccc(-c2cnc3ccc(Br)cn23)n1 was tested. Which IC50 did it give?
A: 190 nM

Q: With Cc1nc2ccc(Cl)cc2n1-c1ccnc(N)n1 as the compound, how does the IC50 read?
A: 4000 nM

Q: With Nc1nccc(-n2cnc3ccc(Cl)cc32)n1 as the compound, how does the IC50 read?
A: 310 nM

Q: Cc1[nH]c2ccc(Cl)cc2c1-c1ccnc(N)n1 was tested. Which IC50 did it give?
A: 300 nM

Q: For Nc1nccc(-c2c[nH]c3ccc(Cl)cc23)n1, which IC50 is on record?
A: 150 nM

Q: For Nc1nccc(-n2ccc3ccc(Cl)cc32)n1, which IC50 is on record?
A: 76 nM

Q: With Nc1nccc(-n2ccc3ccc(Br)cc32)n1 as the compound, how does the IC50 read?
A: 89 nM

Q: For N#Cc1ccc2ccn(-c3ccnc(N)n3)c2c1, which IC50 is on record?
A: 63 nM

Q: Nc1nccc(N2CCc3ccc(Br)cc32)n1 was tested. Which IC50 did it give?
A: 550 nM

Q: Nc1nccc(-c2c[nH]c3ccc(F)cc23)n1 was tested. Which IC50 did it give?
A: 1800 nM

Q: How did the IC50 turn out when COc1ccc2[nH]cc(-c3ccnc(N)n3)c2c1 was run?
A: 24000 nM

Q: With N#Cc1ccc2[nH]cc(-c3ccnc(N)n3)c2c1 as the compound, how does the IC50 read?
A: 63 nM

Q: For Cc1ccc2nc(C)c(-c3ccnc(N)n3)n2c1, which IC50 is on record?
A: 42000 nM

Q: Which IC50 does the source give for Nc1nccc(-c2c[nH]c3ccccc23)n1 here?
A: 41000 nM

Target: T1, Mitogen-activated protein kinase kinase kinase 14
Experiment: Inhibition of NIK in human HT-29 cells assessed as LTalpha/beta2-induced p100 processing to NFkappaB2 preincubated for 30 mins before LTalpha/beta2 stimulation measured after 5 hrs
Type: cell-based

Q: With Nc1ncc2c(n1)-c1c([nH]c3ccc(Br)cc13)CCC2 as the compound, how does the IC50 read?
A: 4600 nM

Q: For COCCOc1cnc(N)nc1-c1c[nH]c2ccc(C#CC(C)(C)O)cc12, which IC50 is on record?
A: 20 nM

Q: Which IC50 does the source give for Cc1nc2ccc(Cl)cn2c1-c1ccnc(N)n1 here?
A: 16000 nM
